Earlier results, collected in patent US20260335339A1, “COMPOSITIONS FOR DERMAL/TRANSDERMAL DELIVERY AND COSMETIC USE” (YISSUM RESEARCH DEVELOPMENT COMPANY OF THE HEBREW …, priority 2022, published 2026).

Conditions: lipophilic fluorescent molecule

O=C1OC2(c3ccc(O)cc3Oc3cc(O)ccc32)c2ccc(N=C=S)cc21 [FITC, fluorescein isothiocyanate]
log p: 4.3
